System: KRAS PDC tumor spheroids (HUVEC+MSC), viability
Assay: Anticancer human tumor 254851-301-R-J1-PDC patient-derived colon carcinoma cell line growth inhibition [KRAS2]
Details: for IC50: curve of first compound; for viability, T/C: stronger effect = lower value
Method in brief: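 KRAS-mutant tumor cells were grown as spheroids with HUVEC endothelial cells and human MSCs as stroma. Targeted agents were tested alone and with KRAS pathway inhibitors. Doses started at or near clinical Cmax, or 10 microM, descending half-log.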

[1] = second compound 0.1 µM, first compound 0.0316 µM
[2] = second compound 0.1 µM, first compound 0.1 µM
[3] = second compound 0.1 µM, first compound 0.316 µM
[4] = second compound 0.1 µM, first compound 1 µM
[5] = second compound 0.1 µM, first compound 3.16 µM
[6] = second compound 0.1 µM, first compound 10 µM
[7] = second compound 0.316 µM, first compound 0.0316 µM
[8] = second compound 0.316 µM, first compound 0.1 µM
[9] = second compound 0.316 µM, first compound 0.316 µM
[10] = second compound 0.316 µM, first compound 1 µM
[11] = second compound 0.316 µM, first compound 3.16 µM
[12] = second compound 0.316 µM, first compound 10 µM
[13] = second compound 1 µM, first compound 0.0316 µM
[14] = second compound 1 µM, first compound 0.1 µM
[15] = second compound 1 µM, first compound 0.316 µM
[16] = second compound 1 µM, first compound 1 µM
[17] = second compound 1 µM, first compound 3.16 µM
[18] = second compound 1 µM, first compound 10 µM
[19] = second compound 3.16 µM, first compound 0.0316 µM
[20] = second compound 3.16 µM, first compound 0.1 µM
[21] = second compound 3.16 µM, first compound 0.316 µM
[22] = second compound 3.16 µM, first compound 1 µM
[23] = second compound 3.16 µM, first compound 3.16 µM
[24] = second compound 3.16 µM, first compound 10 µM
[25] = second compound 10 µM, first compound 0.0316 µM
[26] = second compound 10 µM, first compound 0.1 µM
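Also: spheroids exposed to compounds for seven days before readout.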
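For viability, T/C in this document: 100% = DMSO vehicle control luminescence of the spheroids.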

SMILES: Cn1nccc1Nc1nccc(-c2cc3c(s2)C(C)(C)N(CCN2CCOCC2)C3=O)n1 + CNCc1ccccc1-c1csc(C(C)Nc2nc(C)nc3cc(OC)c(OC)cc23)c1
- IC50 (second compound 0.1 µM): 2080 nM
- IC50 (second compound 0.316 µM): 2500 nM
- IC50 (second compound 1 µM): 1610 nM
- IC50 (second compound 3.16 µM): < 31.6 nM
- IC50 (second compound 10 µM): < 31.6 nM
- viability, T/C [1]: 106%
- viability, T/C [2]: 97.4%
- viability, T/C [3]: 99.6%
- viability, T/C [4]: 89.8%
- viability, T/C [5]: 27.4%
- viability, T/C [6]: 3.87%
- viability, T/C [7]: 90.7%
- viability, T/C [8]: 94.5%
- viability, T/C [9]: 86.7%
- viability, T/C [10]: 81.3%
- viability, T/C [11]: 42%
- viability, T/C [12]: 4.06%
- viability, T/C [13]: 95.4%
- viability, T/C [14]: 106%
- viability, T/C [15]: 93.3%
- viability, T/C [16]: 77.4%
- viability, T/C [17]: 11.2%
- viability, T/C [18]: 3.35%
- viability, T/C [19]: 25.9%
- viability, T/C [20]: 51%
- viability, T/C [21]: 58%
- viability, T/C [22]: 24.2%
- viability, T/C [23]: 0.16%
- viability, T/C [24]: 0.12%
- viability, T/C [25]: 0.09%
- viability, T/C [26]: 0.11%
- viability, T/C (second compound 10 µM, first compound 0.316 µM): 0.08%
- viability, T/C (second compound 10 µM, first compound 1 µM): 0.06%
- viability, T/C (second compound 10 µM, first compound 3.16 µM): 0.06%
- viability, T/C (second compound 10 µM, first compound 10 µM): 0.09%

SMILES: COC(=O)c1ccc2c(C(=Nc3ccc(N(C)C(=O)CN4CCN(C)CC4)cc3)c3ccccc3)c(O)[nH]c2c1 + C=CC(=O)N1CCN(c2nc(OCC3CCCN3C)nc3c2CCN(c2cccc4cccc(C)c24)C3)CC1CC#N
- IC50 (second compound 0.0316 µM): > 10000 nM
- IC50 (second compound 0.1 µM): > 10000 nM
- IC50 (second compound 0.316 µM): > 10000 nM
- IC50 (second compound 1 µM): > 10000 nM
- IC50 (second compound 3.16 µM): 583 nM
- viability, T/C (second compound 0.0316 µM, first compound 0.0316 µM): 93.5%
- viability, T/C (second compound 0.0316 µM, first compound 0.1 µM): 89.8%
- viability, T/C (second compound 0.0316 µM, first compound 0.316 µM): 98.9%
- viability, T/C (second compound 0.0316 µM, first compound 1 µM): 87.8%
- viability, T/C (second compound 0.0316 µM, first compound 3.16 µM): 81.7%
- viability, T/C (second compound 0.0316 µM, first compound 10 µM): 83.3%
- viability, T/C [1]: 95.5%
- viability, T/C [2]: 94.9%
- viability, T/C [3]: 92.3%
- viability, T/C [4]: 83.8%
- viability, T/C [5]: 81.8%
- viability, T/C [6]: 82%
- viability, T/C [7]: 81%
- viability, T/C [8]: 88.5%
- viability, T/C [9]: 86.3%
- viability, T/C [10]: 77.1%
- viability, T/C [11]: 68.1%
- viability, T/C [12]: 77.8%
- viability, T/C [13]: 85.8%
- viability, T/C [14]: 86.2%
- viability, T/C [15]: 86.7%
- viability, T/C [16]: 78%
- viability, T/C [17]: 75.6%
- viability, T/C [18]: 76.3%
- viability, T/C [19]: 70%
- viability, T/C [20]: 65.2%
- viability, T/C [21]: 57.9%
- viability, T/C [22]: 42.3%
- viability, T/C [23]: 7.1%
- viability, T/C [24]: 0.21%

SMILES: CC(C)n1nc(-c2ccc3oc(N)nc3c2)c2c(N)ncnc21 + C=CC(=O)N1CCN(c2nc(=O)n(-c3c(C)ccnc3C(C)C)c3nc(-c4c(O)cccc4F)c(F)cc23)C(C)C1
- IC50 (second compound 0.1 µM): 19.1 nM
- IC50 (second compound 0.316 µM): 21.6 nM
- IC50 (second compound 1 µM): 13.3 nM
- IC50 (second compound 3.16 µM): 20.1 nM
- IC50 (second compound 10 µM): 18.1 nM
- viability, T/C (second compound 0.1 µM, first compound 0.000316 µM): 107%
- viability, T/C (second compound 0.1 µM, first compound 0.001 µM): 110%
- viability, T/C (second compound 0.1 µM, first compound 0.00316 µM): 92.8%
- viability, T/C (second compound 0.1 µM, first compound 0.01 µM): 72.8%
- viability, T/C [1]: 32.3%
- viability, T/C [2]: 19.8%
- viability, T/C (second compound 0.316 µM, first compound 0.000316 µM): 105%
- viability, T/C (second compound 0.316 µM, first compound 0.001 µM): 104%
- viability, T/C (second compound 0.316 µM, first compound 0.00316 µM): 97.7%
- viability, T/C (second compound 0.316 µM, first compound 0.01 µM): 71.2%
- viability, T/C [7]: 39.8%
- viability, T/C [8]: 23.1%
- viability, T/C (second compound 1 µM, first compound 0.000316 µM): 116%
- viability, T/C (second compound 1 µM, first compound 0.001 µM): 113%
- viability, T/C (second compound 1 µM, first compound 0.00316 µM): 102%
- viability, T/C (second compound 1 µM, first compound 0.01 µM): 54.7%
- viability, T/C [13]: 34.3%
- viability, T/C [14]: 21.9%
- viability, T/C (second compound 3.16 µM, first compound 0.000316 µM): 103%
- viability, T/C (second compound 3.16 µM, first compound 0.001 µM): 117%
- viability, T/C (second compound 3.16 µM, first compound 0.00316 µM): 89.7%
- viability, T/C (second compound 3.16 µM, first compound 0.01 µM): 73.5%
- viability, T/C [19]: 34.7%
- viability, T/C [20]: 22.8%
- viability, T/C (second compound 10 µM, first compound 0.000316 µM): 98.9%
- viability, T/C (second compound 10 µM, first compound 0.001 µM): 109%
- viability, T/C (second compound 10 µM, first compound 0.00316 µM): 88.5%
- viability, T/C (second compound 10 µM, first compound 0.01 µM): 66.4%
- viability, T/C [25]: 35.1%
- viability, T/C [26]: 24%

— PubChem BioAssay AID1963868 (Molecular Pharmacology Branch, DTP, NCI, 2024)
